According to PubChem BioAssay AID1963845 (Molecular Pharmacology Branch, DTP, NCI, 2024):
“And” between values parts separate entries of the source, which are not always exact repeats. Equal entries are not always repeated.

Tested on: 429239-143-T-J1-PDC complex spheroid viability
Test: Anticancer human tumor 429239-143-T-J1-PDC patient-derived small cell lung carcinoma cell line growth inhibition [POLQ]
Settings: for viability, T/C: stronger effect = lower value
Description: Multicellular complex tumor spheroid response to Polymerase (POL) inhibitors (novobiocin, ART-558, RP6685) in combination with a variety of drugs and investigational agents in selected tumor cell lines
The POL inhibitors (novobiocin, ART-558, and RP6685) were evaluated both individually and in combination with standard of care and investigational anticancer small molecules within a complex spheroid model of solid tumors. . Complex spheroids include a stromal component modeled by human endothelial cells (HUVEC) and fibroblasts modeled by human mesenchymal stem cells (MSCs). The concentration ranges selected for each drug and investigational agent were based upon clinically achievable concentrations if the clinical Cmax of the agent was known.
Compounds. The drugs and investigational agents: novobiocin (NSC847541), ART-558 (NSC835418), RP-6685 (NSC848927), peposertib (NSC802822), ceralasertib (NSC780249), elimusertib (NSC800525), camonsertib (NSC841442), AZD-1390 (NSC803789), olaparib (NSC753686), talazoparib (NSC767125), rucaparib (NSC756644), sotorasib (NSC818433), MRTX-1133 (NSC836407), SN-38 (NSC673596), topotecan (NSC609699), epotoside (NSC141540), doxorubicin (NSC123127), gemcitabine (NSC613327), 5-fluorouracil (NSC19893), paclitaxel (NSC125973), vemurafenib (NSC761431), MSA-2 (NSC828583), SN-011 (NSC837082), adavosertib (NSC754352), prexasertib (NSC758257), carboplatin (NSC241240) and oxaliplatin (NSC266046), were obtained from the National Cancer Institute (NCI) Developmental Therapeutics Program Chemical Repository (21). The FDA-approved anticancer drug set is available from the Developmental Therapeutics Program at https://dtp.cancer.gov/organization/dscb/obtaining/. […] The stock solutions were prepared in dimethyl sulfoxide (DMSO, Sigma-Aldrich, St. Louis, MO, cat. D2650), except for the platinum compounds which were prepared in saline (Quality Biological, Gaithersburg, MD, cat. 114-055-101), at 800-fold the tested concentration and stored at -70 degrees C prior to their use. All drugs and investigational agents were tested over a range starting from a high concentration at or near the clinical Cmax and decreasing in half-log increments. If the clinical Cmax for an agent had not been determined, the highest concentration tested was 10 microM, except for SN-38, which was tested at a high concentration of 1 microM.
Cell Culture. All cells were maintained in an incubator at 37 degrees C and 5% CO2 with 95% humidity. The PDC lines were cultured according to standard operating procedures established by the NCI PDMR (https://pdmr.cancer.gov). Table 3 of the manuscript, lists the cell lines along with the number of the three cell types plated to form the mct-spheroids and media for tumor cell growth. After thawing, all PDC lines, except 997537-175-T-J1-PDC and 415267-285-R-J2-PDC, were cultured in Matrigel-coated flasks prepared with a working solution of 1X Ham's F-12 nutrient mix, without supplementation (Thermo Fisher Scientific, cat. 11765054), 100 U/mL penicillin-streptomycin (Thermo Fisher Scientific, cat. 15140122), and 2.5% Matrigel (Corning Inc., Corning, NY, cat. 354248) for the first three passages. The two PDC lines 997537-175-T-J1-PDC and 415267-285-R-J2-PDC were cultured on uncoated flasks. The 857933-349-R-J2-PDC line was cultured in 6C/Colon 1B media containing advanced DMEM/F-12 (Thermo Fisher Scientific, cat. 12634028), 10 mM HEPES (Thermo Fisher Scientific, cat. 15630080), 1X GlutaMAX supplement (Thermo Fisher Scientific, cat. 35050061), 0.1 mg/mL primocin (InvivoGen, San Diego, CA, cat. ant-pm-2), 10% defined fetal bovine serum, heat inactivated (HyClone Laboratories Inc., Logan, UT, cat. SH30070.03HI), 50% L-WRN conditioned media (ATCC, cat. CRL-3276), 1.25 mM N-Acetyl-L-cysteine (Sigma-Aldrich, cat. A9165), 10 mM nicotinamide (Sigma-Aldrich, cat. N0636), 1X B-27 supplement (Thermo Fisher Scientific, cat. 17504044), 1X N-2 supplement (Thermo Fisher Scientific, cat. […]

[1] = curve of first compound, second compound 0.0316 µM
[2] = curve of first compound, second compound 0.1 µM
[3] = curve of first compound, second compound 0.316 µM
[4] = curve of first compound, second compound 1 µM
[5] = curve of first compound, second compound 3.16 µM
[6] = curve of first compound, second compound 10 µM
[7] = second compound 0.0316 µM, first compound 0.0316 µM
[8] = second compound 0.0316 µM, first compound 0.1 µM
[9] = second compound 0.0316 µM, first compound 0.316 µM
[10] = second compound 0.0316 µM, first compound 1 µM
[11] = second compound 0.0316 µM, first compound 3.16 µM
[12] = second compound 0.0316 µM, first compound 10 µM
[13] = second compound 0.1 µM, first compound 0.0316 µM
[14] = second compound 0.1 µM, first compound 0.1 µM
[15] = second compound 0.1 µM, first compound 0.316 µM
[16] = second compound 0.1 µM, first compound 1 µM
[17] = second compound 0.1 µM, first compound 3.16 µM
[18] = second compound 0.1 µM, first compound 10 µM
[19] = second compound 0.316 µM, first compound 0.0316 µM
[20] = second compound 0.316 µM, first compound 0.1 µM
[21] = second compound 0.316 µM, first compound 0.316 µM
[22] = second compound 0.316 µM, first compound 1 µM
[23] = second compound 0.316 µM, first compound 3.16 µM
[24] = second compound 0.316 µM, first compound 10 µM
[25] = second compound 1 µM, first compound 0.0316 µM
[26] = second compound 1 µM, first compound 0.1 µM
[27] = second compound 1 µM, first compound 0.316 µM
[28] = second compound 1 µM, first compound 1 µM
[29] = second compound 1 µM, first compound 3.16 µM
[30] = second compound 1 µM, first compound 10 µM
[31] = second compound 3.16 µM, first compound 0.0316 µM
[32] = second compound 3.16 µM, first compound 0.1 µM
[33] = second compound 3.16 µM, first compound 0.316 µM
[34] = second compound 3.16 µM, first compound 1 µM
[35] = second compound 3.16 µM, first compound 3.16 µM
[36] = second compound 3.16 µM, first compound 10 µM
[37] = second compound 10 µM, first compound 0.0316 µM
[38] = second compound 10 µM, first compound 0.1 µM
[39] = second compound 10 µM, first compound 0.316 µM
[40] = second compound 10 µM, first compound 1 µM
[41] = second compound 10 µM, first compound 3.16 µM
[42] = second compound 10 µM, first compound 10 µM
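Also: luminescence signal used as surrogate measure of viable cells; spheroids exposed to compounds for seven days before readout.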
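For viability, T/C in this document: 100% = DMSO vehicle control viability as luminescence relative to vehicle.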

CCc1cc2c(N3CCc4c(cc(Cn5ccnc5)cc4-c4cn(C)nc4C(F)(F)F)C3=O)cc(C)nc2c(OC)n1
viability, T/C (compound 0.0316 µM): 97.3% and 95.1% and 89.2% | viability, T/C (compound 0.1 µM): 77.4% and 91.2% and 89.8% | viability, T/C (compound 0.316 µM): 63.9% and 85.3% and 90% | viability, T/C (compound 1 µM): 48% and 81.4% and 78.2% | viability, T/C (compound 3.16 µM): 42.7% and 76.8% and 69.8% | viability, T/C (compound 10 µM): 38.6% and 45.6% and 43.8% | IC50 (curve of compound): 0.977 µM and 8.65 µM and 7.62 µM

COc1ccc([C@@H](O)c2cc(-c3ncnc4cc(N5CCOCC5)ccc34)c(F)cc2Cl)nn1
viability, T/C (compound 0.0316 µM): 94.3% and 105% and 106% | viability, T/C (compound 0.1 µM): 96% and 95.6% and 99.2% | viability, T/C (compound 0.316 µM): 93.8% and 92.8% and 87.8% | viability, T/C (compound 1 µM): 87.6% and 96.2% and 92.5% | viability, T/C (compound 3.16 µM): 55.4% and 93.5% and 53.1% | IC50 (curve of compound): 3.61 µM and 9.97 µM and 3.52 µM

O=C(Nc1ccc(O)c(NS(=O)(=O)c2ccc(F)cc2)c1)c1ccc(-c2ccccc2)cc1 + COC1C(OC(N)=O)C(O)C(Oc2ccc3c(O)c(NC(=O)c4ccc(O)c(CC=C(C)C)c4)c(=O)oc3c2C)OC1(C)C
IC50 [1]: > 10 µM | IC50 [2]: > 10 µM | IC50 [3]: > 10 µM | IC50 [4]: > 10 µM | IC50 [5]: > 10 µM | IC50 [6]: > 10 µM | viability, T/C [7]: 110% | viability, T/C [8]: 97.1% | viability, T/C [9]: 108% | viability, T/C [10]: 105% | viability, T/C [11]: 99% | viability, T/C [12]: 66.7% | viability, T/C [13]: 90.2% | viability, T/C [14]: 92.9% | viability, T/C [15]: 99.6% | viability, T/C [16]: 121% | viability, T/C [17]: 113% | viability, T/C [18]: 61.3% | viability, T/C [19]: 101% | viability, T/C [20]: 83.7% | viability, T/C [21]: 95.2% | viability, T/C [22]: 105% | viability, T/C [23]: 106% | viability, T/C [24]: 64.4% | viability, T/C [25]: 104% | viability, T/C [26]: 92.8% | viability, T/C [27]: 93% | viability, T/C [28]: 90.8% | viability, T/C [29]: 107% | viability, T/C [30]: 59.4% | viability, T/C [31]: 98.9% | viability, T/C [32]: 90% | viability, T/C [33]: 100% | viability, T/C [34]: 98.7% | viability, T/C [35]: 93.3% | viability, T/C [36]: 76.9% | viability, T/C [37]: 99.1% | viability, T/C [38]: 85.9% | viability, T/C [39]: 99% | viability, T/C [40]: 102% | viability, T/C [41]: 113% | viability, T/C [42]: 68.6%

COc1cc2cc(C(=O)CCC(=O)O)sc2cc1OC + Cc1cccc(N(C)C(=O)C2C(O)CCN2c2nc(C)cc(C(F)(F)F)c2C#N)c1
IC50 [1]: > 10 µM | IC50 [2]: > 10 µM | IC50 [3]: > 10 µM | IC50 [4]: > 10 µM | IC50 [5]: > 10 µM | IC50 [6]: > 10 µM | viability, T/C [7]: 103% | viability, T/C [8]: 114% | viability, T/C [9]: 97.8% | viability, T/C [10]: 106% | viability, T/C [11]: 109% | viability, T/C [12]: 89.5% | viability, T/C [13]: 96.1% | viability, T/C [14]: 97.9% | viability, T/C [15]: 109% | viability, T/C [16]: 99.4% | viability, T/C [17]: 94.4% | viability, T/C [18]: 101% | viability, T/C [19]: 109% | viability, T/C [20]: 118% | viability, T/C [21]: 99.9% | viability, T/C [22]: 106% | viability, T/C [23]: 96% | viability, T/C [24]: 90.1% | viability, T/C [25]: 99.8% | viability, T/C [26]: 99.1% | viability, T/C [27]: 94.1% | viability, T/C [28]: 115% | viability, T/C [29]: 117% | viability, T/C [30]: 91.2% | viability, T/C [31]: 108% | viability, T/C [32]: 96.3% | viability, T/C [33]: 103% | viability, T/C [34]: 105% | viability, T/C [35]: 115% | viability, T/C [36]: 101% | viability, T/C [37]: 104% | viability, T/C [38]: 91.3% | viability, T/C [39]: 99.3% | viability, T/C [40]: 120% | viability, T/C [41]: 110% | viability, T/C [42]: 97.7%
